Tests used:
Assay type in all cases: in vivo
[1] = test system: St. Augustinegrass v. Delmar; assay: Phytotoxicity via post emergence spray application (Table B2.8); conditions: 1 appl
Method: The phytotoxicity of the compound of formula I to turfgrass species was tested. The compound was applied via post emergence spray to a range of warm and cool season turfgrass species at various rates and spray treatment treatment regimes. Percentage phytotoxicity assessments were taken at various timepoints.

[2] = test system: Bermudagrass v. Tifway 419; assay: Phytotoxicity via granule application (Table B3.2)
[3] = test system: Richardia scabra (Florida Pusley); assay: Weed control via post emergence spray, in common centipedegrass (Table B5.2)
Method: The weed control efficacy of the compound of formula I was tested. The compound was applied via post emergence spray to a range of weeds, at various rates and spray treatment treatment regimes. Percentage weed control assessments were taken at various timepoints.

[4] = test system: Trifolium repens (white clover); assay: Weed control of granule formulations, in St. Augustinegrass V. Delmar (Table B6.1)
Method: Two granule formulations were made and tested. Granule A is an inert granule formulation, comprising 99.06 wt % DG Lite 150 granules, 0.14 wt % compound of formula I, 0.50 wt % Sunspray 6N, and 0.30 wt % HiSil 233. The compound of formula I was added to the DG Lite granules while blending in a Continental Rollo-mixer.
Sunspray 6N oil was then sprayed onto the granules, and HiSil added to dry excess liquid and improve granule flowability. The granules were blended in the mixer for 20-30 minutes until homogeneous, and passed through a −12/+60 mesh to remove over and under sized particles.
Granule B is a fertiliser granule formulation, comprising 54.65 wt % urea, 6.63 wt % triple super phosphate, 4.95 wt % potassion chloride, 9.91 wt % huber clay, 7.22 wt % HiSil 233, 0.16 wt % compound of formula I, […] agnique ME 181, 2.07 wt % stepfac 8180, and 11.98 wt % water. […] The remaining HiSil was added and granules dried at 40-60° C., to remove excess liquid. Finally, the granules were passed through a −12/+60 mesh to remove over and under sized particles.
The weed control efficacy of the compound of formula I was tested. […] All treatments were watered-in 1 day after application. Percentage weed control assessments were taken at various timepoints.

[5] = test system: Perennial ryegrass v. blend of Bright Star, Citation Fore and Quick Trans; assay: Phytotoxicity of granule formulations with safeners (Table B4.5); conditions: 8 DAT
Method: The phytotoxicity to turfgrass of the compound of formula I in combination with various safeners was tested. The combinations were applied by post emergence spray application. Percentage phytotoxicity assessments were taken at various timepoints. The safeners tested in these trials were cloquintocet-mexyl, cyprosulfamide, a compound of formula 2.3, and isoxadifen-ethyl.
Tables B4.4 and B4.5 present the results of trials using safeners applied in combination with granule formulations of the compound of formula I.

[6] = Granule A (inert), 112 g ai/ha, 15 DAT
[7] = Granule A (inert), 112 g ai/ha, 20 DAT
[8] = Granule A (inert), 112 g ai/ha, 28 DAT
[9] = Granule A (inert), 280 g ai/ha, 28 DAT
[10] = Granule B (fertiliser), 112 g ai/ha, 11 DAT
[11] = Granule B (fertiliser), 112 g ai/ha, 15 DAT
[12] = Granule B (fertiliser), 112 g ai/ha, 20 DAT
[13] = Granule B (fertiliser), 112 g ai/ha, 28 DAT
[14] = Granule B (fertiliser), 280 g ai/ha, 11 DAT
[15] = Granule B (fertiliser), 280 g ai/ha, 15 DAT
[16] = Granule B (fertiliser), 280 g ai/ha, 20 DAT
[17] = Granule B (fertiliser), 280 g ai/ha, 28 DAT

For `COCCOCc1nc(C(F)(F)F)ccc1C(=O)C1=C(O)C2CCC(C2)C1=O` (stereo not drawn) [Formula I, 4-Hydroxy-3-[2-(2-methoxyethoxymethyl)-6-trifluoromethylpyridine-3-carbonyl]-bicyclo[3.2.1]oct-3-en-2-one], the “% phytotoxicity” value ([1]; 10 g ai/ha, 5 DAT) was 5.00%, the “% phytotoxicity” value ([1]; 10 g ai/ha, 12 DAT) was 5.00% and the “% phytotoxicity” value ([1]; 10 g ai/ha, 18 DAT) was 0.00%. For the same molecule, the “% phytotoxicity” value ([1]; 10 g ai/ha, 28 DAT) was 0.00%, the “% phytotoxicity” value ([1]; 20 g ai/ha, 5 DAT) was 6.67% and the “% phytotoxicity” value ([1]; 20 g ai/ha, 12 DAT) was 6.67%. The “% phytotoxicity” value ([1]; 20 g ai/ha, 18 DAT) was 2.00%, the “% phytotoxicity” value ([1]; 20 g ai/ha, 28 DAT) was 0.00% and the “% phytotoxicity” value ([1]; 40 g ai/ha, 5 DAT) was 11.67%. The “% phytotoxicity” value ([1]; 40 g ai/ha, 12 DAT) was 18.33%, the “% phytotoxicity” value ([1]; 40 g ai/ha, 18 DAT) was 4.00% and the “% phytotoxicity” value ([1]; 40 g ai/ha, 28 DAT) was 0.00%. For the same molecule, the “% phytotoxicity” value ([1]; 80 g ai/ha, 5 DAT) was 16.67%, the “% phytotoxicity” value ([1]; 80 g ai/ha, 12 DAT) was 30.00% and the “% phytotoxicity” value ([1]; 80 g ai/ha, 18 DAT) was 5.00%. The “% phytotoxicity” value ([1]; 80 g ai/ha, 28 DAT) was 0.67%, the “% phytotoxicity” value ([1]; 160 g ai/ha, 5 DAT) was 23.33% and the “% phytotoxicity” value ([1]; 160 g ai/ha, 12 DAT) was 46.67%. The “% phytotoxicity” value ([1]; 160 g ai/ha, 18 DAT) was 8.33%, the “% phytotoxicity” value ([1]; 160 g ai/ha, 28 DAT) was 3.00% and the “% phytotoxicity” value [2, 6] was 0.00%. The “% phytotoxicity” value [2, 7] was 0.00%, the “% phytotoxicity” value [2, 8] was 0.00% and the “% phytotoxicity” value [2, 9] was 0.00%. The “% phytotoxicity” value [2, 10] was 4.00%, the “% phytotoxicity” value [2, 11] was 0.00% and the “% phytotoxicity” value [2, 12] was 0.00%. For the same molecule, the “% phytotoxicity” value [2, 13] was 0.00%, the “% phytotoxicity” value [2, 14] was 15.00% and the “% phytotoxicity” value [2, 15] was 3.30%. For the same molecule, the “% phytotoxicity” value [2, 16] was 1.30%, the “% phytotoxicity” value [2, 17] was 0.00% and the “% phytotoxicity” value ([2]; Spray, 112 g ai/ha, 7 DAT) was 30.00%. The “% phytotoxicity” value ([2]; Spray, 112 g ai/ha, 11 DAT) was 18.30%, the “% phytotoxicity” value ([2]; Spray, 112 g ai/ha, 15 DAT) was 10.00% and the “% phytotoxicity” value ([2]; Spray, 112 g ai/ha, 20 DAT) was 3.00%. The “% phytotoxicity” value ([2]; Spray, 112 g ai/ha, 28 DAT) was 0.00%, the “% phytotoxicity” value ([2]; Spray, 280 g ai/ha, 7 DAT) was 66.70% and the “% phytotoxicity” value ([2]; Spray, 280 g ai/ha, 11 DAT) was 25.00%. For the same molecule, the “% phytotoxicity” value ([2]; Spray, 280 g ai/ha, 15 DAT) was 10.00%, the “% phytotoxicity” value ([2]; Spray, 280 g ai/ha, 20 DAT) was 6.00% and the “% phytotoxicity” value ([2]; Spray, 280 g ai/ha, 28 DAT) was 0.00%. The “% control” value ([3]; 1 appl, 140 g ai/ha, 5 DAT) was 16.67%, the “% control” value ([3]; 1 appl, 140 g ai/ha, 13 DAT) was 25.00% and the “% control” value ([3]; 1 appl, 140 g ai/ha, 21 DAT) was 33.33%. The “% control” value ([3]; 1 appl, 140 g ai/ha, 27 DAT) was 33.33%, the “% control” value ([3]; 1 appl, 140 g ai/ha, 35 DAT) was 23.33% and the “% control” value ([3]; 1 appl, 140 g ai/ha, 42 DAT) was 16.67%. The “% control” value ([3]; 1 appl, 140 g ai/ha, 61 DAT) was 13.33%, the “% control” value ([3]; 1 appl, 280 g ai/ha, 5 DAT) was 20.00% and the “% control” value ([3]; 1 appl, 280 g ai/ha, 13 DAT) was 36.67%. The “% control” value ([3]; 1 appl, 280 g ai/ha, 21 DAT) was 46.67%, the “% control” value ([3]; 1 appl, 280 g ai/ha, 27 DAT) was 41.67% and the “% control” value ([3]; 1 appl, 280 g ai/ha, 35 DAT) was 38.33%. The “% control” value ([3]; 1 appl, 280 g ai/ha, 42 DAT) was 28.33%, the “% control” value ([3]; 1 appl, 280 g ai/ha, 61 DAT) was 38.33% and the “% control” value ([3]; 2 appl, 140 g ai/ha, 5 DAT) was 16.67%. For the same molecule, the “% control” value ([3]; 2 appl, 140 g ai/ha, 13 DAT) was 20.00%, the “% control” value ([3]; 2 appl, 140 g ai/ha, 21 DAT) was 41.67% and the “% control” value ([3]; 2 appl, 140 g ai/ha, 27 DAT) was 33.33%. For the same molecule, the “% control” value ([3]; 2 appl, 140 g ai/ha, 35 DAT) was 60.00%, the “% control” value ([3]; 2 appl, 140 g ai/ha, 42 DAT) was 53.33% and the “% control” value ([3]; 2 appl, 140 g ai/ha, 61 DAT) was 8.33%. For the same molecule, the “% control” value ([3]; 2 appl, 280 g ai/ha, 5 DAT) was 16.67%, the “% control” value ([3]; 2 appl, 280 g ai/ha, 13 DAT) was 28.33% and the “% control” value ([3]; 2 appl, 280 g ai/ha, 21 DAT) was 46.67%. The “% control” value ([3]; 2 appl, 280 g ai/ha, 27 DAT) was 35.00%, the “% control” value ([3]; 2 appl, 280 g ai/ha, 35 DAT) was 61.67% and the “% control” value ([3]; 2 appl, 280 g ai/ha, 42 DAT) was 61.67%. The “% control” value ([3]; 2 appl, 280 g ai/ha, 61 DAT) was 16.67%, the “% control” value ([4]; Granule A (inert), 112 g ai/ha, 7 DAT) was 46.70% and the “% control” value ([4]; Granule A (inert), 112 g ai/ha, 11 DAT) was 63.30%. For the same molecule, the “% control” value [4, 6] was 66.70%, the “% control” value [4, 7] was 63.30% and the “% control” value [4, 8] was 50.00%. The “% control” value ([4]; Granule A (inert), 280 g ai/ha, 7 DAT) was 56.70%, the “% control” value ([4]; Granule A (inert), 280 g ai/ha, 11 DAT) was 76.70% and the “% control” value ([4]; Granule A (inert), 280 g ai/ha, 15 DAT) was 78.30%. For the same molecule, the “% control” value ([4]; Granule A (inert), 280 g ai/ha, 20 DAT) was 70.00%, the “% control” value [4, 9] was 51.70% and the “% control” value ([4]; Granule B (fertiliser), 112 g ai/ha, 7 DAT) was 53.30%. The “% control” value [4, 10] was 70.00%, the “% control” value [4, 11] was 76.70% and the “% control” value [4, 12] was 75.00%. The “% control” value [4, 13] was 70.00%, the “% control” value ([4]; Granule B (fertiliser), 280 g ai/ha, 7 DAT) was 66.70% and the “% control” value [4, 14] was 80.00%. The “% control” value [4, 15] was 85.00%, the “% control” value [4, 16] was 88.30% and the “% control” value [4, 17] was 81.70%. The “% control” value ([4]; Spray, 112 g ai/ha, 7 DAT) was 63.30%, the “% control” value ([4]; Spray, 112 g ai/ha, 11 DAT) was 78.30% and the “% control” value ([4]; Spray, 112 g ai/ha, 15 DAT) was 81.70%. The “% control” value ([4]; Spray, 112 g ai/ha, 20 DAT) was 76.70%, the “% control” value ([4]; Spray, 112 g ai/ha, 28 DAT) was 76.70% and the “% control” value ([4]; Spray, 280 g ai/ha, 7 DAT) was 71.70%. For the same molecule, the “% control” value ([4]; Spray, 280 g ai/ha, 11 DAT) was 86.70%, the “% control” value ([4]; Spray, 280 g ai/ha, 15 DAT) was 90.00% and the “% control” value ([4]; Spray, 280 g ai/ha, 20 DAT) was 91.70%. The “% control” value ([4]; Spray, 280 g ai/ha, 28 DAT) was 76.70%, the “% phytotoxicity” value ([5]; DG Lite granule, no safener, 520 g ai/ha) was 18.8% and the “% phytotoxicity” value ([5]; DG Lite granule, safener Cyprosulfamide (0.07%), 520 g ai/ha) was 21.3%. The “% phytotoxicity” value ([5]; DG Lite granule, safener Formula 2.3 (0.07%), 520 g ai/ha) was 20.0%, the “% phytotoxicity” value ([5]; DG Lite granule, safener Isoxadifen (0.07%), 520 g ai/ha) was 21.3% and the “% phytotoxicity” value ([5]; Spray, no safener, 260 g ai/ha) was 31.3%.
